The text below walks through data of US6015560A, “Antibody recognizing endothelial cell ligand for leukocyte CR3” (priority 1995, dated 2000).

For one assay, the system named is C3bi. Briefly: Inhibition of binding of 12.1F9 to E-C3bi by peptides. On the set-up: species or system human. The text has this: The antibody 12.1F9 maps to the region 1279-2011 of FHA. When the derived amino acid sequence of this region was compared to that of C3, a region of 11 amino acids with similar sequence was found between FHA residues 1408-1418 and C3 residues 1187-1197 (Table 14). […] However, the FHA-20-mer and the homologous C3-derived peptide blocked binding by up to 60%.

Assay [1] relates to human umbilical vein endothelial cells. As to the kind of experiment: Adherence of neutrophils to cultured (TNF-stimulated) endothelial cells. Type of assay: cell-based. The procedure, abridged: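 Confluent HUVEC monolayers stimulated with 10 ng/ml TNF alpha for 4 h at 37 °C; fluorescein-labelled human neutrophils preincubated 15 min with peptides (0.5 mM in HAP, stock) or HAP buffer, then allowed to adhere 15 min at 37 °C. Adherent cells counted microscopically, expressed as percent of HAP-only control.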

The next assay deals with leukocytes in CSF. As to the kind of experiment: Rabbit meningitis model: leukocyte migration into CSF. The format is in vivo. The method in brief: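 New Zealand white rabbits received 10^8 heat-killed unencapsulated pneumococcus R6 intracisternally, then peptide in 1 ml saline i.v. 1 h later (1 uM in the follow-up study). CSF leukocyte density was counted hourly after inoculation. Peripheral blood leukocytes were sampled 30 min post-dosing.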

Regarding filamentous hemagglutinin [native FHA], in the assay with C3bi, the “block of binding of 12.1F9 to C3bi (in words)” value is recorded as “blocked binding almost completely”. For the same substance, in the assay on C3bi (peptides 50 μg/ml, normalized to a control value of 100), the Adherence index is 16 ± 16. The “reduction of neutrophil binding to HUVEC” value in assay [1] (25 μg/ml=0.3 μM) was determined as 51±8%. Further, the “inhibition of adherence of neutrophils to cultured endothelial cells” value in assay [1] (50 ug/ml, 0.2 uM) is 51±7%. Besides, the “maximal inhibition of neutrophil attachment” value in assay [1] (concentration dependence) is listed as ~ 50%. Moreover, the “anti-inflammatory effect (in words)” value in the assay on leukocytes in CSF (10^-3 μM i.v.) is reported as “ineffective”. In addition, the “mean leukocyte concentration in CSF” value with leukocytes in CSF (7 hours, FHA 0.1 μM (25 μg) i.v.) was 2096±450 /μl CSF. Besides, the “leukocyte density vs control (in words)” value in the assay with leukocytes in CSF (7 hours, 10^-1 μM) is “statistically significantly different from control”. The “reduction of CSF leukocytosis” value with leukocytes in CSF (peptides 10 μM, FHA 0.1 μM) is greater than 60%.
